Experimental data as given in paper PMC9127750, “Structure-based design of CDC42 effector interaction inhibitors for the treatment of cancer” (Cell reports, 2022).

System: WM3248 melanoma cells, 486 antibodies
Test: Reverse phase protein arrays (RPPA);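 for RPPA ACC1.R.C: ratio of treated to vehicle (0 µM) normalized linear protein signal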;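 for RPPA AMPK.a2 pS345.R.V: ratio of treated to vehicle (0 µM) normalized linear protein signal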;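 for RPPA AMPKa pT172.R.C: ratio of treated to vehicle (0 µM) normalized linear protein signal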;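 for RPPA ASNS.R.V: ratio of treated to vehicle (0 µM) normalized linear protein signal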;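 for RPPA AceCS1.R.V: ratio of treated to vehicle (0 µM) normalized linear protein signal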;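 for RPPA Akt1.R.V: ratio of treated to vehicle (0 µM) normalized linear protein signal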;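 for RPPA Atg5.R.C: ratio of treated to vehicle (0 µM) normalized linear protein signal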;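 for RPPA Bim.R.V: ratio of treated to vehicle (0 µM) normalized linear protein signal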
Assay type: cell-based, Human
Conditions: 10 uM
Description: Pellets were snap frozen in liquid nitrogen and shipped to MD Anderson Cancer Center core RPPA facility for RPPA analysis (Table S5). Three biological replicates for each sample were generated.
Nomenclatures on the RPPA heatmaps: name_of_antibody.species_of_antibody.status_of_antibody. V - antibody validated; C - validation of antibody in progress; Q - antibody nonspecific; E – under evaluation; antibodies raised in M - mouse, G - goat, R - rabbit, or T - rat.

With CN(C)c1cccc(Nc2cc(-c3ccccc3)nc(C3CCNCC3)n2)c1 [ARN22089, N1,N1-dimethyl-N3-(6-phenyl-2-(piperidin-4-yl)pyrimidin-4-yl)benzene-1,3-diamine] the “RPPA B7.H4.R.C” value (10W1) was 1.035, the “RPPA B.Raf.R.C” value (10W1) was 0.916 and the “RPPA B.Raf_pS445.R.V” value (10W1) was 0.953. The “RPPA BAP1.M.V” value (10W1) was 0.957, the “RPPA BCL2A1.R.V” value (10W1) was 1.947 and the “RPPA BMK1.Erk5_pT218_Y220.R.V” value (10W1) was 0.926. The “RPPA BRCA1.M.C” value (10W1) was 1.059, the “RPPA BRD4.R.V” value (10W1) was 1.134 and the “RPPA Bad_pS112.R.V” value (10W1) was 1.118. For the same compound, the “RPPA Bax.R.V” value (10W1) was 1.004, the “RPPA Bcl2.R.C” value (10W1) was 1.048 and the “RPPA Bcl.xL.R.V” value (10W1) was 1.112. The “RPPA Beclin.R.C” value (10W1) was 1.064, the “RPPA Bim.R.V” value (10W1) was 1.024 and the “RPPA X4E.BP1.R.V” value (10W1) was 0.716. The “RPPA X4E.BP1_pS65.R.V” value (10W1) was 0.893, the “RPPA X4E.BP1_pT37_T46.R.V” value (10W1) was 0.934 and the “RPPA X14.3.3.zeta.R.V” value (10W1) was 1.029. The “RPPA X14.3.3βR.V” value (10W1) was 1.012, the “RPPA X14.3.3εM.C” value (10W1) was 0.955 and the “RPPA X53BP1.R.V” value (10W1) was 0.984. The “RPPA b.Catenin.R.V” value (10W1) was 0.868, the “RPPA b.Catenin_pT41_S45.R.V” value (10W1) was 1.019 and the “RPPA c.Abl.R.V” value (10W1) was 1.140. The “RPPA c.Abl_pY412.R.C” value (10W1) was 0.995, the “RPPA A.Raf_pS299.R.C” value (10W3) was 0.989 and the “RPPA ACC1.R.C” value (10W3) was 0.761. For the same compound, the “RPPA ACC_pS79.R.V” value (10W3) was 0.652, the “RPPA ACLY_pS455.R.V” value (10W3) was 1.060 and the “RPPA ACSL1.R.V” value (10W3) was 0.743. For the same compound, the “RPPA ACVRL1.R.C” value (10W3) was 1.047, the “RPPA ADAR1.M.V” value (10W3) was 0.974 and the “RPPA AMPK.a2_pS345.R.V” value (10W3) was 1.012. The “RPPA AMPKa.R.C” value (10W3) was 0.993, the “RPPA AMPKa_pT172.R.C” value (10W3) was 0.770 and the “RPPA AR.R.V” value (10W3) was 0.980. The “RPPA ARID1A.R.C” value (10W3) was 1.025, the “RPPA ASNS.R.V” value (10W3) was 1.126 and the “RPPA ATM.R.V” value (10W3) was 0.864. For the same compound, the “RPPA ATM_pS1981.R.V” value (10W3) was 1.016, the “RPPA ATP5A.M.C” value (10W3) was 0.859 and the “RPPA ATP5H.R.V” value (10W3) was 1.047. The “RPPA ATR.R.V” value (10W3) was 0.992, the “RPPA ATRX.R.C” value (10W3) was 0.863 and the “RPPA ATR_pS428.R.C” value (10W3) was 1.076. For the same compound, the “RPPA AceCS1.R.V” value (10W3) was 0.950, the “RPPA Akt1.R.V” value (10W3) was 1.034 and the “RPPA Akt1_pS473.R.V” value (10W3) was 1.099. The “RPPA Akt2.R.V” value (10W3) was 0.982, the “RPPA Akt2_pS474.R.C” value (10W3) was 1.062 and the “RPPA Akt.R.V” value (10W3) was 0.811. The “RPPA Akt_pS473.R.V” value (10W3) was 1.223, the “RPPA Akt_pT308.R.V” value (10W3) was 1.196 and the “RPPA Ambra1_pS52.R.C” value (10W3) was 0.979. The “RPPA Annexin.I.M.V” value (10W3) was 0.896, the “RPPA Annexin.VII.M.V” value (10W3) was 0.983 and the “RPPA Atg5.R.C” value (10W3) was 0.843. The “RPPA Atg7.R.V” value (10W3) was 0.986, the “RPPA Aurora.A.R.C” value (10W3) was 1.109 and the “RPPA Aurora.ABC_pT288_pT232_pT198.R.C” value (10W3) was 0.933. The “RPPA Aurora.B.R.V” value (10W3) was 1.003, the “RPPA Axl.R.V” value (10W3) was 0.953 and the “RPPA B7.H3.R.C” value (10W3) was 1.031. For the same compound, the “RPPA B.Raf_pS445.R.V” value (10W3) was 1.006, the “RPPA BAP1.M.V” value (10W3) was 1.063 and the “RPPA BCL2A1.R.V” value (10W3) was 1.172. For the same compound, the “RPPA BMK1.Erk5_pT218_Y220.R.V” value (10W3) was 0.935, the “RPPA BRCA1.M.C” value (10W3) was 0.989 and the “RPPA BRD4.R.V” value (10W3) was 0.839. For the same compound, the “RPPA Bad_pS112.R.V” value (10W3) was 1.059, the “RPPA Bak.R.C” value (10W3) was 1.018 and the “RPPA Bax.R.V” value (10W3) was 0.972. For the same compound, the “RPPA Bcl.xL.R.V” value (10W3) was 1.015, the “RPPA Beclin.R.C” value (10W3) was 0.995 and the “RPPA BiP.GRP78.M.C” value (10W3) was 1.013. The “RPPA Bid.R.C” value (10W3) was 1.021, the “RPPA Bim.R.V” value (10W3) was 0.900 and the “RPPA X4E.BP1.R.V” value (10W3) was 0.590. The “RPPA X4E.BP1_pS65.R.V” value (10W3) was 1.148, the “RPPA X4E.BP1_pT37_T46.R.V” value (10W3) was 1.133 and the “RPPA X14.3.3.zeta.R.V” value (10W3) was 1.033. The “RPPA X14.3.3βR.V” value (10W3) was 1.026, the “RPPA X14.3.3εM.C” value (10W3) was 1.009 and the “RPPA X53BP1.R.V” value (10W3) was 0.920. The “RPPA b.Actin.R.C” value (10W3) was 1.024, the “RPPA b.Catenin.R.V” value (10W3) was 0.914 and the “RPPA b.Catenin_pT41_S45.R.V” value (10W3) was 1.012. For the same compound, the “RPPA c.Abl.R.V” value (10W3) was 1.061, the “RPPA c.Abl_pY412.R.C” value (10W3) was 0.963 and the “RPPA c.IAP2.R.C” value (10W3) was 1.023. For the same compound, the “C.Raf.R.C RPPA level” value (Average) was 0.940, the “C.Raf_pS338.R.V RPPA level” value (Average) was 0.978 and the “CA9.R.C RPPA level” value (Average) was 0.980. The “CD2.M.C RPPA level” value (Average) was 1.035, the “CD4.R.V RPPA level” value (Average) was 0.935 and the “CD5.M.C RPPA level” value (Average) was 1.029. For the same compound, the “CD20.R.C RPPA level” value (Average) was 1.026, the “CD26.R.V RPPA level” value (Average) was 0.948 and the “CD29.M.V RPPA level” value (Average) was 1.016. The “CD31.M.V RPPA level” value (Average) was 1.034, the “CD38.R.C RPPA level” value (Average) was 0.977 and the “CD44.R.C RPPA level” value (Average) was 1.010. The “CD45.M.V RPPA level” value (Average) was 1.023, the “CD49b.M.V RPPA level” value (Average) was 1.014 and the “CD68.M.C RPPA level” value (Average) was 1.034. For the same compound, the “CD134.R.V RPPA level” value (Average) was 1.019, the “CD171.M.V RPPA level” value (Average) was 0.898 and the “CDK1_pT14.R.C RPPA level” value (Average) was 0.932. For the same compound, the “CDK9.R.V RPPA level” value (Average) was 1.014, the “CDT1.R.V RPPA level” value (Average) was 1.048 and the “CENP.A.R.V RPPA level” value (Average) was 1.017. The “CHD1L.R.V RPPA level” value (Average) was 1.034, the “CIITA.R.C RPPA level” value (Average) was 1.018 and the “COG3.R.V RPPA level” value (Average) was 1.062. The “CRABP1.R.C RPPA level” value (Average) was 1.050, the “CREB_pS133.R.C RPPA level” value (Average) was 1.130 and the “Calnexin.R.V RPPA level” value (Average) was 1.046. For the same compound, the “Caspase.3.cleaved.R.C RPPA level” value (Average) was 0.944, the “Caspase.7.cleaved..R.C RPPA level” value (Average) was 0.997 and the “Caspase.8.M.Q RPPA level” value (Average) was 0.957. For the same compound, the “Caspase.8.cleaved.R.C RPPA level” value (Average) was 0.988, the “Caveolin.1.R.V RPPA level” value (Average) was 0.941 and the “Cdc6.R.V RPPA level” value (Average) was 0.971. For the same compound, the “Cdc42.R.C RPPA level” value (Average) was 0.986, the “Chk1.M.C RPPA level” value (Average) was 1.082 and the “Chk1_pS345.R.C RPPA level” value (Average) was 0.961. The “Chk2.M.V RPPA level” value (Average) was 1.026, the “Chk2_pT68.R.C RPPA level” value (Average) was 1.020 and the “Claudin.7.R.V RPPA level” value (Average) was 1.203. For the same compound, the “Collagen.VI.R.V RPPA level” value (Average) was 1.025, the “Complex.II.Subunit.M.V RPPA level” value (Average) was 1.017 and the “Connexin.43.R.C RPPA level” value (Average) was 1.031. The “Coup.TFII.R.C RPPA level” value (Average) was 0.889, the “Cox2.R.C RPPA level” value (Average) was 0.972 and the “Cox.IV.R.V RPPA level” value (Average) was 0.954. The “Creb.R.C RPPA level” value (Average) was 0.986, the “CtIP.R.V RPPA level” value (Average) was 0.940 and the “Cyclin.B1.R.V RPPA level” value (Average) was 0.940. The “Cyclin.D1.R.C RPPA level” value (Average) was 1.061, the “Cyclin.D3.M.V RPPA level” value (Average) was 1.058 and the “Cyclin.E1.R.V RPPA level” value (Average) was 1.006. The “Cyclophilin.F.M.V RPPA level” value (Average) was 0.965, the “D.a.Tubulin.R.V RPPA level” value (Average) was 0.976 and the “DAPK2.R.C RPPA level” value (Average) was 0.971. The “DDB.1.R.V RPPA level” value (Average) was 0.857, the “DDR1.R.V RPPA level” value (Average) was 1.028 and the “DDR1_pY513.R.C RPPA level” value (Average) was 1.051. The “DJ1.R.V RPPA level” value (Average) was 1.016, the “DM.Histone.H3.R.V RPPA level” value (Average) was 0.928 and the “DNA.Ligase.IV.R.C RPPA level” value (Average) was 1.003. The “DNA_POLG.R.V RPPA level” value (Average) was 1.013, the “RPPA A.Raf.R.V” value (Average) was 0.917 and the “RPPA ACC1.R.C” value (Average) was 0.919. The “RPPA ACC_pS79.R.V” value (Average) was 0.878, the “RPPA ACLY_pS455.R.V” value (Average) was 1.125 and the “RPPA ACSL1.R.V” value (Average) was 0.971. The “RPPA ADAR1.M.V” value (Average) was 1.083, the “RPPA ALKBH5.R.V” value (Average) was 1.027 and the “RPPA AMPK.a2_pS345.R.V” value (Average) was 1.001. For the same compound, the “RPPA AMPKa.R.C” value (Average) was 0.982, the “RPPA AMPKa_pT172.R.C” value (Average) was 1.263 and the “RPPA AR.R.V” value (Average) was 0.922. For the same compound, the “RPPA ASNS.R.V” value (Average) was 0.960.
